Data reported in US20220091133A1, “METHODS AND ASSAYS FOR IMMUNE PHENOTYPING” (Washington University, priority 2020, published 2022).

Tests used:
[1] = test system: PBMCs (monocyte TNF-α production); format: cell-based, human
[2] = test system: Trichosporon asahii and Saksenaea species; assay: Tissue, wound, blood and bone cultures of the fungal wound sepsis patient; format: in vivo, human
From the text: They were aggressively treated with daily or alternating-day operative debridement, broad-spectrum parenteral and topical antibacterial and antifungal therapy. Antimicrobial therapy included ceftazidime, metronidazole, trimethoprim-sulfamethoxazole, micafungin, amphotericin B, and posaconazole (FIG. 29), as well as VERAFLO vac instillation of antimicrobials into the wound bed. The patient's polymicrobial soft tissue infection continued to advance and was accompanied by multisystem organ failure and shock. Over a 4-week period, they required debridement of >3000 cm^2 of skin, subcutaneous tissue, and muscle involving the entire perineum, bilateral thighs, buttocks, and circumferential abdominal wall (FIG. 28B).
Tissue histology also became negative for fungus at approximately the same time as tissue cultures (FIG. 28E).

[3] = test system: lymphocytes in infected wound; assay: Anti-CD3 immunohistochemical staining of wound biopsies; format: in vivo, human; conditions: after initiation of IL-7
From the text: A beneficial effect of IL-7 in infectious disorders is to increase expression of lymphocyte adhesion molecules and induce lymphocyte trafficking to sites of infection.

[4] = test system: PBMCs (T cell IFN-γ production); assay: ELISpot, CD3/CD28-stimulated IFN-γ in patient PBMCs before and after IL-7 therapy (Example 5); format: in vivo, human; conditions: concomitant with initiation of IL-7 treatment
[5] = test system: PBMCs (TNF-α-producing cells); assay: ELISpot, lipopolysaccharide-stimulated TNF-α in patient PBMCs before and after IL-7 therapy (Example 5); format: in vivo, human; conditions: concomitant with initiation of IL-7 treatment
[6] = Enzyme-linked immunosorbent assays for plasma type I IFN levels (Example 5); format: in vivo, human; conditions: plasma of critically ill COVID-19 patient

In the case of “IL-7: recombinant human IL-7, immunoadjuvant and potent T cell activator; R&D Systems ex vivo, RevImmune for patients”, the “mean increase in LPS-induced TNF-α-producing cells after IL-7 coincubation” value ([1]; COVID-19 patient PBMCs, LPS + IL-7, not statistically significant) is reported as 101%, the “effect of IL-7 on monocyte TNF-α production” value ([1]; COVID-19 patients, LPS vs LPS + IL-7, n=25) is reported as “did not increase” and the “tissue cultures after initiation of IL-7 therapy” value ([2]; by the fifth dose of IL-7) is reported as “persistently negative cultures”. For the same substance, the “time blood, wound and bone cultures stayed negative for bacterial or fungal pathogens after completing IL-7 therapy” value ([2]; human, in vivo) was 40 days, the “number of CD3+ lymphocytes in biopsies from the infected wound” value [3] was “marked increase” and the “increase in the number of IFN-γ-producing T cells” value [4] was “multifold increases”. The “increase in the number of TNF-α-producing cells” value [5] was “multifold increases”, the “IFN-α (all subtypes) plasma concentration” value ([6]; Post IL-7, Day 12) was “Undetectable” and the IFN-β plasma concentration ([6]; Post IL-7, Day 12) was 130 pg/mL. The “IFN-α (all subtypes) plasma concentration” value ([6]; Post IL-7, Day 21) was “Undetectable” and the IFN-β plasma concentration ([6]; Post IL-7, Day 21) was 4.1 pg/mL.
